pIC50: −log10 of the molar value.
Target: T1, CCR2 (Homo sapiens, UniProt P41597)
T1 sequence (P41597 1-360 isoform P41597-2): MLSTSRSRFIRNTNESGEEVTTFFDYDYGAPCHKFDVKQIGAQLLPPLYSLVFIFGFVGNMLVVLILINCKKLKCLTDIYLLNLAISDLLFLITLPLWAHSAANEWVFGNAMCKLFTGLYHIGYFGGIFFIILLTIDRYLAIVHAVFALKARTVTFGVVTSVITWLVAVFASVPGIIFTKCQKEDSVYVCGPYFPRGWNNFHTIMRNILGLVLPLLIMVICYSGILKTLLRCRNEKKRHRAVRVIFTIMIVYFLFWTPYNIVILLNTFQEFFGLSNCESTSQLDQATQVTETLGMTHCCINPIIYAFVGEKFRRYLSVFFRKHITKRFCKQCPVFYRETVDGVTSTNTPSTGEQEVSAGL
Experiment: MCP-1 Receptor Binding Assay in THP-1 Cells
Conditions: for pIC50: THP-1 cells, 0.5 nM 125I labeled MCP-1, 2 hours at 30° C., read-out: Mean Ligand Binding IC50 (inhibition of MCP-1 binding to CCR2); for inhibition at 25 µM: MCP-1 binding to CCR2, test concentration of 25 μM, unless indicated otherwise, read-out: % Inhibition Ligand Binding
Summary of the method: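 THP-1 cells; bound radioactivity collected on filter plates and counted by scintillation. Buffer-only blanks subtracted, drug-treated values compared with vehicle; nonspecific binding defined with 1 μM unlabeled MCP-1.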

Compound | pIC50 | inhibition at 25 µM
C[N+](C)(Cc1ccc(NC(=O)C2=Cc3cccc(F)c3OC2)cc1)C1CCCCC1 [Cpd 126, cyclohexyl-{4-[(8-fluoro-2H-chromene-3-carbonyl)-amino]-benzyl}-dimethyl-ammonium iodide] | 6.04 | –
Cc1ccc2c(c1)OCC(C(=O)Nc1ccc(C[N+](C)(C)C3CCCCC3)cc1)=C2 [Cpd 127, cyclohexyl-dimethyl-{4-[(7-methyl-2H-chromene-3-carbonyl)-amino]-benzyl}-ammonium iodide] | 7.10 | –
COc1ccc2c(c1)OCC(C(=O)Nc1ccc(C[N+](C)(C)C3CCCCC3)cc1)=C2 [Cpd 128, cyclohexyl-{4-[(7-methoxy-2H-chromene-3-carbonyl)-amino]-benzyl}-dimethyl-ammonium iodide] | 6.22 | –
CC(C)(C)c1ccc2c(c1)C=C(C(=O)Nc1ccc(C[N+](C)(C)C3CCCCC3)cc1)CO2 [Cpd 129, {4-[(6-tert-butyl-2H-chromene-3-carbonyl)-amino]-benzyl}-cyclohexyl-dimethyl-ammonium iodide] | 6.82 | –
C[N+](C)(Cc1ccc(NC(=O)C2=Cc3cc(C(F)(F)F)ccc3OC2)cc1)C1CCSC1 (stereo not shown) [Cpd 130, dimethyl-(tetrahydro-thiophen-3-yl)-{4-[(6-trifluoromethyl-2H-chromene-3-carbonyl)-amino]-benzyl}-ammonium iodide] | 6.52 | –
C[N+](C)(Cc1ccc(NC(=O)C2=Cc3cccc(C(F)(F)F)c3OC2)cc1)C1CCCCC1 [Cpd 134, cyclohexyl-dimethyl-{4-[(8-trifluoromethyl-2H-chromene-3-carbonyl)-amino]-benzyl}-ammonium iodide] | 6.33 | –
C[N+](C)(Cc1ccc(NC(=O)C2=Cc3cc(Br)ccc3CCC2)cc1)C1CCOCC1 [Cpd 143, {4-[(3-bromo-8,9-dihydro-7H-benzocycloheptene-6-carbonyl)-amino]-benzyl}-dimethyl-(tetrahydro-pyran-4-yl)-ammonium iodide] | 8.15 | –
C[N+](C)(Cc1ccc(NC(=O)C2=Cc3cc(Br)ccc3CCC2)cc1)C1CCCCC1 [Cpd 144, {4-[(3-bromo-8,9-dihydro-7H-benzocycloheptene-6-carbonyl)-amino]-benzyl}-cyclohexyl-dimethyl-ammonium iodide] | 6.48 | –
C[N+]1(Cc2ccc(NC(=O)C3=Cc4ccccc4CCC3)cc2)CCCC1 [Cpd 145, 1-{4-[(8,9-dihydro-7H-benzocycloheptene-6-carbonyl)-amino]-benzyl}-1-methyl-pyrrolidinium iodide] | – | 36%
C[N+](C)(Cc1ccc(NC(=O)C2=Cc3ccccc3CCC2)cc1)C1CCCCC1 [Cpd 146, cyclohexyl-{4-[(8,9-dihydro-7H-benzocycloheptene-6-carbonyl)-amino]-benzyl}-dimethyl-ammonium iodide] | 6.15 | –
C[N+](C)(Cc1ccc(NC(=O)C2=Cc3ccccc3CCC2)cc1)C1CCOCC1 [Cpd 147, {4-[(8,9-dihydro-7H-benzocycloheptene-6-carbonyl)-amino]-benzyl}-dimethyl-(tetrahydro-pyran-4-yl)-ammonium iodide] | 5.92 | –
C[N+](C)(Cc1ccc(NC(=O)c2cc(-c3ccc(Cl)cc3)oc2C(F)(F)F)cc1)C1CCCCC1 [Cpd 154, (4-{[5-(4-chloro-phenyl)-2-trifluoromethyl-furan-3-carbonyl]-amino}-benzyl)-cyclohexyl-dimethyl-ammonium iodide] | 5.34 | –
C[N+](C)(Cc1ccc(NC(=O)c2cc3cc(Cl)ccc3o2)cc1)C1CCOCC1 [Cpd 155, {4-[(5-chloro-benzofuran-2-carbonyl)-amino]-benzyl}-dimethyl-(tetrahydro-pyran-4-yl)-ammonium iodide] | 6.31 | –
C[N+](C)(Cc1ccc(NC(=O)c2cc3cc(Cl)ccc3o2)cc1)C1CCCCC1 [Cpd 156, {4-[(5-chloro-benzofuran-2-carbonyl)-amino]-benzyl}-cyclohexyl-dimethyl-ammonium iodide] | 6.74 | –
C[N+](C)(Cc1ccc(NC(=O)c2cc3ccccc3o2)cc1)C1CCCCC1 [Cpd 157, {4-[(benzofuran-2-carbonyl)-amino]-benzyl}-cyclohexyl-dimethyl-ammonium iodide] | 6.16 | –
Cn1c(C(=O)Nc2ccc(C[N+](C)(C)C3CCOCC3)cc2)cc2ccccc21 [Cpd 158, dimethyl-{4-[(1-methyl-1H-indole-2-carbonyl)-amino]-benzyl}-(tetrahydro-pyran-4-yl)-ammonium iodide] | 6.40 | –
C[N+](C)(Cc1ccc(NC(=O)c2cc3cc(Cl)ccc3[nH]2)cc1)C1CCOCC1 [Cpd 159, {4-[(5-chloro-1H-indole-2-carbonyl)-amino]-benzyl}-dimethyl-(tetrahydro-pyran-4-yl)-ammonium iodide] | 6.72 | –
C[N+](C)(Cc1ccc(NC(=O)c2cc3cc(Br)ccc3[nH]2)cc1)C1CCOCC1 [Cpd 160, {4-[(5-bromo-1H-indole-2-carbonyl)-amino]-benzyl}-dimethyl-(tetrahydro-pyran-4-yl)-ammonium iodide] | 6.54 | –
Cn1c(C(=O)Nc2ccc(C[N+](C)(C)C3CCCCC3)cc2)cc2ccccc21 [Cpd 163, cyclohexyl-dimethyl-{4-[(1-methyl-1H-indole-2-carbonyl)-amino]-benzyl}-ammonium iodide] | 6.21 | –
C[N+](C)(Cc1ccc(NC(=O)c2cc3cc(Cl)ccc3[nH]2)cc1)C1CCCCC1 [Cpd 164, {4-[(5-chloro-1H-indole-2-carbonyl)-amino]-benzyl}-cyclohexyl-dimethyl-ammonium iodide] | 6.70 | –

The remaining lines, values ahead:

pIC50 | inhibition at 25 µM | Compound
6.04 | – | C[N+](C)(Cc1ccc(NC(=O)C2=Cc3c(ccc4ccccc34)OC2)cc1)C1CCOCC1 [Cpd 135, {4-[(3H-benzo[f]chromene-2-carbonyl)-amino]-benzyl}-dimethyl-(tetrahydro-pyran-4-yl)-ammonium iodide]
5.34 | – | C[N+]1(Cc2ccc(NC(=O)C3=Cc4c(ccc5ccccc45)OC3)cc2)CCCC1 [Cpd 136, 1-{4-[(3H-benzo[f]chromene-2-carbonyl)-amino]-benzyl}-1-methyl-pyrrolidinium iodide]
7.10 | – | C[N+](C)(Cc1ccc(NC(=O)C2=Cc3c(ccc4ccccc34)OC2)cc1)C1CCCCC1 [Cpd 137, {4-[(3H-benzo[f]chromene-2-carbonyl)-amino]-benzyl}-cyclohexyl-dimethyl-ammonium iodide]
5.62 | – | C[N+](C)(Cc1ccc(NC(=O)C2=Cc3c(ccc4ccccc34)OC2)cc1)C1CCSCC1 [Cpd 138, {4-[(3H-benzo[f]chromene-2-carbonyl)-amino]-benzyl}-dimethyl-(tetrahydro-thiopyran-4-yl)-ammonium iodide]
5.01 | – | C[N+]1(Cc2ccc(NC(=O)C3=Cc4c(ccc5ccccc45)OC3)cc2)CCOCC1 [Cpd 139, 4-{4-[(3H-benzo[f]chromene-2-carbonyl)-amino]-benzyl}-4-methyl-morpholin-4-ium iodide]
6.00 | – | C[N+](C)(Cc1ccc(NC(=O)C2=Cc3c(ccc4ccccc34)OC2)cc1)CC1CCOCC1 [Cpd 140, {4-[(3H-benzo[f]chromene-2-carbonyl)-amino]-benzyl}-dimethyl-(tetrahydro-pyran-4-ylmethyl)-ammonium iodide]
– | -21% | C[N+](C)(Cc1ccc(CNC(=O)C2=Cc3c(ccc4ccccc34)OC2)cc1)C1CCOCC1 [Cpd 141, (4-{[(3H-benzo[f]chromene-2-carbonyl)-amino]-methyl}-benzyl)-dimethyl-(tetrahydro-pyran-4-yl)-ammonium iodide]
– | -18% | C[N+](C)(Cc1ccc(CNC(=O)C2=Cc3cc(Br)ccc3CCC2)cc1)C1CCOCC1 [Cpd 142, (4-{[(3-bromo-8,9-dihydro-7H-benzocycloheptene-6-carbonyl)-amino]-methyl}-benzyl)-dimethyl-(tetrahydro-pyran-4-yl)-ammonium iodide]
– | 7% | C[N+](C)(Cc1ccc(CNC(=O)C2=Cc3ccccc3CCC2)cc1)C1CCOCC1 [Cpd 148, (4-{[(8,9-dihydro-7H-benzocycloheptene-6-carbonyl)-amino]-methyl}-benzyl)-dimethyl-(tetrahydro-pyran-4-yl)-ammonium iodide]
– | 58% | Cc1oc(-c2ccccc2)cc1C(=O)NCc1ccc(C[N+](C)(C)C2CCOCC2)cc1 [Cpd 149, dimethyl-(4-{[(2-methyl-5-phenyl-furan-3-carbonyl)-amino]-methyl}-benzyl)-(tetrahydro-pyran-4-yl)-ammonium iodide]
– | 27% | Cc1oc(-c2ccc(Cl)cc2)cc1C(=O)NCc1ccc(C[N+](C)(C)C2CCOCC2)cc1 [Cpd 150, [4-({[5-(4-chloro-phenyl)-2-methyl-furan-3-carbonyl]-amino}-methyl)-benzyl]-dimethyl-(tetrahydro-pyran-4-yl)-ammonium iodide]
5.80 | – | C[N+](C)(Cc1ccc(NC(=O)c2cc3ccccc3o2)cc1)C1CCOCC1 [Cpd 152, {4-[(benzofuran-2-carbonyl)-amino]-benzyl}-dimethyl-(tetrahydro-pyran-4-yl)-ammonium iodide]
– | 33% | Cn1cc(C(=O)Nc2ccc(C[N+](C)(C)C3CCOCC3)cc2)c2ccccc21 [Cpd 161, dimethyl-{4-[(1-methyl-1H-indole-3-carbonyl)-amino]-benzyl}-(tetrahydro-pyran-4-yl)-ammonium iodide]
5.80 | – | C[N+](C)(Cc1ccc(NC(=O)c2cn(Cc3ccccc3)c3ccccc23)cc1)C1CCOCC1 [Cpd 162, {4-[(1-benzyl-1H-indole-3-carbonyl)-amino]-benzyl}-dimethyl-(tetrahydro-pyran-4-yl)-ammonium iodide]
